Series [1] deals with T1, P. denitrificans NN:DMBI PRT (Sinorhizobium sp, UniProt P29935).
T1 construct: the amino-terminal methionine is definitely excised in vivo by methionine aminopeptidase; made in house; host or cells: Pseudomonas denitrificans SC510 Rif^r carrying plasmid pXL1490B (cobU and cobV amplified)
T1 sequence (P29935 2-338 limits assumed): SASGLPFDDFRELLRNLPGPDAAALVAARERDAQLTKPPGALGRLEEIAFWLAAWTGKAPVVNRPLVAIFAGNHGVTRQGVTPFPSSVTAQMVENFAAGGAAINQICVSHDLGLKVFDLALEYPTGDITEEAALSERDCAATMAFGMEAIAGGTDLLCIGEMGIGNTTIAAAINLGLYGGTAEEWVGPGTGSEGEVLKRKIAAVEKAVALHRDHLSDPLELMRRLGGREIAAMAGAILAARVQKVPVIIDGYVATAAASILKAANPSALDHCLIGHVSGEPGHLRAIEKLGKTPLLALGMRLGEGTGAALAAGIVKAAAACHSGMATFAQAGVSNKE
Kind of series: Specificity of NN:DMBI PRT for benzimidazole substrates. In kind it is biochemical, Pseudomonas denitrificans. The settings on record: NaMN concentration fixed at 2 mM. The method, then: a) Assay of Nicotinate-nucleotide:dimethylbenzimidazole phosphoribosyltransferase activity (FIG. 5, reaction 5). This example illustrates the assay of an enzymatic activity directly linked to the pathway of biosynthesis of cobalamins. The enzyme in question is nicotinate-nucleotide:dimethylbenzimidazole phosphoribosyl-transferase (NN:DMBI PRT) (EC 2.4.2.21). The fractions containing NN:DMBI PRT activity (approximately 5 units) are incubated at 30° C. for 8 min in 0.1 M glycine-NaOH buffer pH 9.7 (500 μl) in the presence of 1 mM NaMN (nicotinic acid mononucleotide) and 10 μM DMBI. The reaction is then stopped by heating to 80° C. for 10 min, the reaction mixture is diluted with water (4 volumes) and this solution (100 μl) is injected onto a 15-cm Nucleosil 5-C8 HPLC column eluted with a 0.1 M potassium phosphate pH 2.9/acetonitrile (93:7) mixture at a flow rate of 1 ml/min. The α-ribazole 5′-phosphate is detected and quantified by fluorimetry (excitation: 260 nm; emission >370 nm). The unit of enzymatic activity is defined as the quantity of enzyme necessary for generating 1 nmol of α-ribazole 5′-phosphate per hour under these conditions.
d) Specificity of NN:DBI PRT for DBI. […]

A further series deals with T2, precorrin-6x reductase (Sinorhizobium sp, UniProt P21920).
T2 construct: the amino-terminal methionine is definitely excised in vivo by methionine aminopeptidase; made in house; host or cells: Pseudomonas denitrificans SC510 Rif^r carrying plasmid pXL253 (8.7-kb EcoRI fragment, cobF to cobM, in pKT230)
T2 sequence (P21920 2-261): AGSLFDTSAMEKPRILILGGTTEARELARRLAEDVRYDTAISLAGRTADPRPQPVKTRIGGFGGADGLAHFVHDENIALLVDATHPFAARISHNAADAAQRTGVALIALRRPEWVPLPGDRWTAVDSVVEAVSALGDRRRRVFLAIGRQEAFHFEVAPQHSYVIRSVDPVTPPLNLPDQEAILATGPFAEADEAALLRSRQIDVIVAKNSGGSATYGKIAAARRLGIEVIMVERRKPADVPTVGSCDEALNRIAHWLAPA
Kind of series: Reaction catalysed by precorrin-6x reductase, cofactor dependence. The series is classed as biochemical, Pseudomonas denitrificans. The method, then: The fractions containing precorrin-6x reductase activity (approximately 0.05 unit, U) are incubated at 30° C. for 60 min in 0.1 M Tris-HCl buffer pH 7.7 (250 μl) in the presence of 1 mM EDTA, 500 μM NADPH, 25 μM [methyl-^3H]SAM (80 μCi/μmol), 4 μM precorrin-6x (Thibaut et al., 1990) and partially purified dihydroprecorrin-6x methylase (0.5 U) (see preparation below). The reaction is then stopped by heating to 80° C. for 5 min and, after centrifugation at 5000×g for 5 min, the supernatant is injected onto a DEAE-Sephadex column (containing 200 μl of gel). The column is then washed extensively with the Tris-HCl buffer, and the compounds bound are eluted with 1 M HCl (4 ml). The radio activity in this eluent is counted by liquid scintillation counting. The unit of enzymatic activity is defined as the quantity of enzyme necessary for reducing 1 nmol of precorrin-6x per h under these conditions.
When the purified enzyme (or an active fraction during purification, or even a crude enzyme extract) is incubated under the conditions of the assay of activity, but in the absence of SAM and of dihydroprecorrin-6x methylase, the product of the reaction can then be purified by HPLC in the system described for the purification of precorrin-6x (see Example 6.1.4.d). […]

Series [2] deals with T3, cobalamin-5′-phosphate synthase (Sinorhizobium sp, UniProt P29936).
T3 construct: made in house; host or cells: Pseudomonas denitrificans SC510 Rif^r carrying plasmid pXL1490B (own cobV gene amplified)
T3 sequence (P29936 whole entry): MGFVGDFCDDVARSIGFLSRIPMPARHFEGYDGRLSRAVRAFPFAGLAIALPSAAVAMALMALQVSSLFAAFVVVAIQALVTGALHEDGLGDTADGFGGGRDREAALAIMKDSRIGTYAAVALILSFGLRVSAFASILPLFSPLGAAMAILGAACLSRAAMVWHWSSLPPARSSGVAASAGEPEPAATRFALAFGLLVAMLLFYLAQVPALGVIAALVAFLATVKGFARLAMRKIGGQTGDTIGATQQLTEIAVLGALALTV
Description: Specificity of cobalamin-5′-phosphate synthase. In kind it is biochemical, Pseudomonas denitrificans. The settings on record: partially purified enzyme. On the procedure: a) Assay of GDP-cobinamide: α-ribazole-5′-phosphate cobinamidephosphotransferase (or cobalamin-5′-phosphate synthase) activity. This example illustrates the assay of an activity directly linked to the pathway of biosynthesis of cobalamines. The enzyme in question is cobalamin-5′-phosphate synthase. The fractions containing the activity (approximately 5 to 10 units) are incubated in darkness at 30° C. in […] buffer pH 9.0 (500 μl) in the presence of 1 mM EDTA, 12.5 mM MgCl2, 50 μM α-ribazole 5′-phosphate and 20 μM GDP-cobinamide [in 5′-deoxy-5′-adenosyl (Ado) or coenzyme form]. After 15 min of incubation, 20 mM potassium cyanide (500 μl) is added and the solution is heated to 80° C. for 10 min. After centrifugation to remove the precipitated matter, the vitamin B12 5′-phosphate present in the supernatant is assayed as described in Example 9. One unit of cobalamin-5′-phosphate synthase is defined as the quantity of enzyme necessary for generating 1 nmol of cobalamine 5′-phosphate per h under the conditions described above.
This experiment illustrates how a P. denitrificans enzymatic activity participating in the pathway of biosynthesis of cobalamines of P. denitrificans can be partially purified. Using the assay described above, the purification of cobalamin 5′-phosphate synthase is carried out. For this purpose, in a typical purification experiment, wet cells (10 g) of strain SC510 Rif^r, into which plasmid pXL1490B has been introduced as described previously, are used. Plasmid pXL1490B is described in FIG. 38: this plasmid corresponds to the 3.85-kb SstI-SstI-BamHI fragment cloned into PKT230. This plasmid carries the P. denitrificans cobU and cobV genes. […] The SC510 Rif^r pXL1490B cells are obtained by culture in PS4 medium supplemented with lividomycin, as described above. […]
c) Specificity of cobalamin-5′-phosphate synthase. […] Intracellular α-ribazole 5′-phosphate and α-ribazole concentrations of 30 and 700 μM, respectively, were measured by HPLC during the production of cobalamins by SC510 Rif^r in PS4 medium under the culture conditions described in Example 6.1.5a).

Series [3] concerns the target T4, Methanobacterium ivanovii SUMT (Methanobacterium ivanovii, UniProt P29564).
T4 construct: endogenous in cells; host or cells: Methanobacterium ivanovii DSM2611 (enzyme purified to homogeneity from the natural organism)
T4 sequence (P29564 2-231 limits assumed): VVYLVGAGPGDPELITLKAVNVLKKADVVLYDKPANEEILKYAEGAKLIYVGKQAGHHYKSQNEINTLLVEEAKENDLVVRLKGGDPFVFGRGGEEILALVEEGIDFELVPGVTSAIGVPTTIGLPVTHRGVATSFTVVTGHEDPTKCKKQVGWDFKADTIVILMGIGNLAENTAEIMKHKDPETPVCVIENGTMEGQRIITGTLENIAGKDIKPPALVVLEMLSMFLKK
Description: Catalytic properties of purified M. ivanovii SUMT. The series is classed as biochemical. The method, then: Methanobacterium ivanovii strain DSM2611 is cultured as described (Souillard et al., 1988). Wet cells (12 g) are obtained. The latter are resuspended in 0.1 M Tris-HCl buffer pH 7.6 (80 ml) containing 5 mM DTT and 1 mM EDTA, and sonicated for 1 h 30 min at 4° C. and then centrifuged for 1 h at 50,000 g. Free tetrapyrrole compounds are then cleared from the extract by passage through a small DEAE-Sephadex A25 column set up in the same buffer. The proteins precipitating at between 55 and 75% ammonium sulphate saturation are solubilised in a 0.1 M Tris-HCl pH 7.5, 0.5 mM DTT, 1.7 M ammonium sulphate buffer and injected onto a Phenyl-Superose HR 10/10 (Pharmacia France/SA) column eluted with a decreasing gradient (1.7 M to 0 M with respect to ammonium sulphate). The active fractions are passed through a Sephadex G-25 column equilibrated with 0.1 M Tris-HCl pH 7.5, 0.5 mM DTT, 25% glycerol buffer (buffer A), then injected onto a Mono Q HR 5/5 (Pharmacia France SA) column equilibrated with buffer A and eluted with a KCl gradient of 0 to 0.3 M; this step is repeated a second time under the same conditions. Gel permeation chromatography of the active fraction of the preceding step on Bio-Sil TSK-250 (BioRad France SA) enables a protein which is homogeneous in SDS-PAGE and in RP-HPLC (C-18 pBondapak) to be obtained. The different steps of purification, with their yield, as well as their purification factor, are described in the table below.
As shown in this table, the total purification factor is more than 4,500. Some properties of the pure enzyme have been studied according to methods already described (Blanche et al., 1989). This enzyme does indeed have SUMT activity, i.e. it does indeed catalyse the SAM-dependant transfer of two methyl groups at C-2 and at C-7 of uro'gen III.
The Vmax of M. ivanovii SUMT was determined. It is 1537 U/mg of proteins. This value is greater than that found for P. denitrificans SUMT, already determined under optimal conditions for the reaction (taking account of its inhibition by uro'gen III), 489 U/mg of proteins (Blanche et al., 1989).

Regarding `Cc1ccc2nc[nH]c2c1` [5-methylbenzimidazole], the “reaction rate compared to the natural substrate (5,6-dimethylbenzimidazole)” value in series [1] turned out to be 92%.

With `c1ccc2[nH]cnc2c1` [Benzimidazole], in series [1], the “reaction rate compared to the natural substrate (5,6-dimethylbenzimidazole)” value is on record as 157%. Take `NC(=O)C1=CN([C@@H]2O[C@H](COP(=O)(O)OP(=O)(O)OC[C@H]3O[C@@H](n4cnc5c(N)ncnc54)[C@H](O)[C@@H]3O)[C@@H](O)[C@H]2O)C=CC1` [NADH]: at precorrin-6x reductase, the “cofactor for reduction of precorrin-6x” value is listed as “NADPH cannot be replaced by NADH”. With `NC(=O)C1=CN([C@@H]2O[C@H](COP(=O)(O)OP(=O)(O)OC[C@H]3O[C@@H](n4cnc5c(N)ncnc54)[C@H](OP(=O)(O)O)[C@@H]3O)[C@@H](O)[C@H]2O)C=CC1` [NADPH], at precorrin-6x reductase, the “cofactor for reduction of precorrin-6x” value is given as “strictly NADPH-dependant”. Broadly, the Km is the substrate concentration at which the rate is half of its maximum. On to `Cc1cc2ncn([C@H]3O[C@H](COP(=O)(O)O)[C@@H](O)[C@H]3O)c2cc1C` [α-ribazole 5′-phosphate], for which, in series [2], the Km is around 2.7 µM. Still for that read-out and setting: for `Cc1cc2ncn([C@H]3O[C@H](CO)[C@@H](O)[C@H]3O)c2cc1C` [α-ribazole] the value was 7.8 µM; for GDP-cobinamide [(Ado)GDP-cobinamide], 0.9 µM.

B1: M. ivanovii SUMT: SAM:uro'gen III methyltransferase purified from Methanobacterium ivanovii, encoded by corA (protein)
chain: MVVYLVGAGPGDPELITLKAVNVLKKADVVLYDKPANEEILKYAEGAKLIYVGKQAGHHYKSQNEINTLLVEEAKENDLVVRLKGGDPFVFGRGGEEILALVEEGIDFELVPGVTSAIGVPTTIGLPVTHRGVATSFTVVTGHEDPTKCKKQVGWDFKADTIVILMGIGNLAENTAEIMKHKDPETPVCVIENGTMEGQRIITGTLENIAGKDIKPPALVVLEMLSMFLKK
As to B1, the Vmax in series [3] is given as 1537 U/mg of proteins.

Values taken from patent publication US6656709B1, “Methods of increasing the production of cobalamins using cob gene expression” (priority 1990, dated 2003).
